This experiment addresses Dopamine receptor. Nature of the experiment: Inhibitory activity against constrictor response to electrical stimulation in the isolated perfused rabbit ear artery(REA) expressing dopamine receptor. More on the design: species or system Oryctolagus cuniculus.

By EC50 is commonly meant the concentration needed to bring the measured effect to its halfway point. The low end stands for a more potent agent, the high end for a less potent agent. For `CCCN(CCC)CCc1cccc(NC(C)=O)c1`, the EC50 is on record as > 1000 nM.
Next, `CCCN(CCC)CCc1cccc(O)c1`: 700 nM.
